The text below walks through data of publication PMC11928319 (Nature Plants, 2025).

“And” between values parts separate entries of the source, which are not always exact repeats. Equal entries are not always repeated.

Test [1] concerns Arabidopsis wild type and efr mutant plants. Kind of test: elf18-induced shoot growth inhibition, shoot weight. The class given is in vivo, Arabidopsis thaliana. The conditions noted are these: Arabidopsis Col-0, 1 µM, 2 weeks.
Test [2] concerns EFR. Briefly: Expression of EFR normalized to UBQ5 in roots (RT–qPCR) and pEFR::NLS–3*mVenus reporter. The conditions noted are these: timepoint 1h, single samples. The class given is in vivo, Arabidopsis thaliana. The protocol: Axenic 14-day-old seedlings (see ‘Agar-based cultivation of axenic plants and co-cultivation with bacteria, bacterial supernatants and elicitors’) were submerged in 12 ml of 10 mM MgSO4 supplemented with 1 µM elicitor or bacteria, which were directly harvested from 0.5× TSB plates and resuspended in 10 mM MgSO4. Bacterial concentration was adjusted to OD600 = 1.5, if not indicated differently. For a heat-killed bacterial inoculum, resuspended bacteria were incubated in boiling water for 30 min. […] For co-exposure to flg22 and AtPep1, seedlings were submerged as described for 1 h, residual liquid was removed and the plants were incubated in a cultivation chamber for 4 h prior to harvesting.
For reverse transcription quantitative PCR (RT–qPCR), roots of eight to ten plants grown on one square plate were pooled for one sample. Frozen roots were homogenized using a TissueLyser II (QIAGEN, 2 × 29 pps for 40 s) with pre-cooled adaptors. RNA was extracted using the Plant RNA Kit (my-Budget) according to the user manual and eluted in 35 µl of elution buffer. RNA concentrations were measured using a spectrometer (Nanodrop OneC Microvolume UV-Vis Spectrophotometer). Complementary DNA was synthesized from 300–500 ng of RNA using the RevertAid H Minus First Strand cDNA Synthesis Kit (ThermoScientific) in a 20-µl reaction according to the user manual. In brief, 1 µl of oligo(dT)18 primer was mixed with RNA in a final volume of 12 µl and incubated at 65 °C for 5 min. Afterwards, 4 µl of 5× Reaction buffer, 2 µl of 10 mM dNTPs, 1 µl of RiboLock RNase Inhibitor (20 U µl^−1) and 1 µl of RevertAid H Minus M-MuLV Reverse Transcriptase (200 U µl^−1) were added, and the reaction was incubated at 42 °C for 60 min followed by heat inactivation at 70 °C for 5 min. cDNA was diluted 1:10 prior to qPCR using the iQ SYBR Green Supermix (Bio-Rad). […]
For orientation: Real-time PCR tracks product formation cycle by cycle.

For the substance Ac-SKEKFERTKPHVNVGTIG [elf18], the “shoot growth (shoot weight) upon peptide treatment” value in test [1] is “Shoot growth inhibition”. In addition, the “EFR fold_change” value in test [2] (Replicate I) was 1.977 and 2.517 and 1.4157 and 1.558; in test [2] (Replicate II) it was 1.051 and 1.166 and 0.9721 and 1.1066; in test [2] (Replicate III), 1.492 and 1.557 and 2.228 and 1.3126.
